Target: MAPK14 (human) (UniProt Q16539)
Assay: Assessment of MAPK14 Kinase Activity

Chain of MAPK14 (human) (Q16539 whole entry, looked up): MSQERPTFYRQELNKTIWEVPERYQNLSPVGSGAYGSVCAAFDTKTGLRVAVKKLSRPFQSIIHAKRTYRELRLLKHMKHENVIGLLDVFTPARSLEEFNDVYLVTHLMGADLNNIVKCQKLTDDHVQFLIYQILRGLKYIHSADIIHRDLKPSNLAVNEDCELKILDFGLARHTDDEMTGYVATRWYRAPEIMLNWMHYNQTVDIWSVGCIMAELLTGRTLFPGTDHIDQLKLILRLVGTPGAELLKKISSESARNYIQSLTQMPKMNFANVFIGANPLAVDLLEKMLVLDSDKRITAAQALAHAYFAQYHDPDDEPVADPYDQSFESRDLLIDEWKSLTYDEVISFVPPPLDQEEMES

| Structure (SMILES) | IC50 |
| --- | --- |
| COc1ccc(NC(=O)Nc2sc(C(C)(C)C)cc2C(=O)N2CCNC(=O)C2(C)C)c(C)c1-c1ccncc1 | < 100 nM |
| Cc1ccc(NC(=O)Nc2cc(C(C)(C)C)sc2C(=O)N2CCN(C(C)C)C(=O)C2(C)C)cc1-c1ccc(CN2CCOCC2)nc1 | < 100 nM |
| Cc1ccc(NC(=O)Nc2sc(C(C)(C)C)cc2C(=O)N2CCN(C)C(=O)C2(C)C)cc1-c1ccc(-n2ccnc2)nc1 | < 100 nM |
| Cc1ccc(NC(=O)Nc2sc(C(C)(C)C)cc2C(=O)N2CCNC(=O)C2(C)C)cc1-c1ncccn1 | < 100 nM |
| Cc1ccc(NC(=O)Nc2sc(C(C)(C)C)nc2C(=O)N2CCN(C)C(=O)C2(C)C)cc1-c1ccc(CN2CCOCC2)nc1 | < 100 nM |
| Cc1ccc(NC(=O)Nc2sc(C(C)(C)C)cc2C(=O)N2CCNC(=O)C2(C)C)cc1-c1ccc(C(C)C)nc1 | < 100 nM |
| Cc1ccc(NC(=O)Nc2sc(C(C)(C)C)cc2C(=O)N2CCN(C)C(=O)C2(C)C)cc1N1C(=O)CN(C)C1=O | < 100 nM |
| Cc1ccc(NC(=O)Nc2sc(C(C)(C)C)cc2C(=O)N2CCNC(=O)C2(C)C)cc1-c1ccc(OCCN2CCOCC2)nc1 | < 100 nM |
| CCC(C)(C)c1cc(C(=O)N2CCN(C)C(=O)C2(C)C)c(NC(=O)Nc2ccc(C)c(-c3ccc(CN4CCOCC4)nc3)c2)s1 | < 100 nM |
| Cc1ccc(NC(=O)Nc2sc(C(C)(C)C)cc2C(=O)N2CCN(C)C(=O)C2(C)C)cc1-c1ccc(C(C)N2CCOCC2)nc1 (stereo unspecified) | < 100 nM |
| COc1ccc(-c2cc(NC(=O)Nc3sc(C(C)(C)C)cc3C(=O)N3CCN(C)C(=O)C3(C)C)ccc2C)cn1 | < 100 nM |

Continued, values first:

| IC50 | Structure (SMILES) |
| --- | --- |
| < 100 nM | CC(C)(C)c1cc(C(=O)N2CCNC(=O)C2(C)C)c(NC(=O)Nc2cccc(-c3ccc(OCCCc4ccccn4)nc3)c2)s1 |
| < 100 nM | COCCOCC#Cc1cc(NC(=O)Nc2sc(C(C)(C)C)cc2C(=O)N2CCNC(=O)C2(C)C)ccc1C |
| < 100 nM | Cc1ccc(NC(=O)Nc2oc(C(C)(C)C)cc2C(=O)N2CCNC(=O)C2(C)C)cc1-c1ccncc1 |
| < 100 nM | Cc1nc(-c2cccc(NC(=O)Nc3sc(C(C)(C)C)cc3C(=O)N3CCNC(=O)C3(C)C)c2)cs1 |
| < 100 nM | Cc1ccc(NC(=O)Nc2sc(C(C)(C)C)cc2C(=O)N2CCN(C)C(=O)C2(C)C)cc1-c1ccc(C(N)=O)nc1 |

Source: the Kinase Knowledgebase extract (Sharma et al. 2016)
